Results: ChEMBL document CHEMBL1150885, “Antibacterial activity of lonchocarpol A” (J Nat Prod, 1998)
In brackets after ≈: the same amount, converted by molar mass.

Legend:
Enterococcus faecium [1] = assay: Antibacterial activity against vancomycin-resistant Enterococcus faecium after 24 hrs by broth microtiter susceptibility assay in absence of mouse plasma; type: functional
Priestia megaterium [2] = assay: Inhibition of cell wall synthesis in Bacillus megaterium Mb 410 assessed as [2,6-3H]diaminopimelic incorporation by scintillation counting; type: functional, organism-based
Priestia megaterium [3] = assay: Inhibition of DNA synthesis in Bacillus megaterium Mb 410 assessed as [6-3H]thymidine incorporation by scintillation counting; type: functional, organism-based
Staphylococcus aureus [4] = assay: Antibacterial activity against methicillin-resistant Staphylococcus aureus after 24 hrs by broth microtiter susceptibility assay in absence of mouse plasma; type: functional
L1210 [5] = assay: Cytotoxicity against mouse L1210 cells by MTT assay; type: functional, cell-based
L1210 [6] = assay: Cytotoxicity against mouse L1210 cells after 24 hrs by trypan blue assay; type: functional, cell-based; conditions: L1210, 24 h
Staphylococcus aureus [7] = assay: Antibacterial activity against methicillin-resistant Staphylococcus aureus after 24 hrs by broth microtiter susceptibility assay in presence of mouse plasma; type: functional
Enterococcus faecium [8] = assay: Antibacterial activity against vancomycin-resistant Enterococcus faecium after 24 hrs by broth microtiter susceptibility assay in presence of mouse plasma; type: functional
[9] = system: Mycolicibacterium smegmatis; assay: Antibacterial activity against Mycobacterium smegmatis after 24 hrs by broth microtiter susceptibility assay in presence of mouse plasma; type: functional
[10] = system: Mycolicibacterium smegmatis; assay: Antibacterial activity against Mycobacterium smegmatis after 24 hrs by broth microtiter susceptibility assay in absence of mouse plasma; type: functional
Priestia megaterium [11] = assay: Inhibition of protein synthesis in Bacillus megaterium Mb 410 assessed as L-[4,5-3H]leucine incorporation by scintillation counting; type: functional, organism-based
Priestia megaterium [12] = assay: Antibacterial activity against Bacillus megaterium Mb 410 after 24 hrs by broth microtiter susceptibility assay in absence of mouse plasma; type: functional
Priestia megaterium [13] = assay: Inhibition of RNA synthesis in Bacillus megaterium Mb 410 assessed as [5,6-3H]uracil incorporation by scintillation counting; type: functional, organism-based
[14] = Toxicity in defibrinated sheep RBC assessed as minimum lytic concentration causing hemolysis after 2 hrs by liquid microtiter assay; type: cell-based, Ovis aries; conditions: erythrocyte

In the case of CC(C)=CCc1c(O)c(CC=C(C)C)c2c(c1O)C(=O)C[C@@H](c1ccc(O)cc1)O2 [LONCHOCARPOL A], the MIC (Enterococcus faecium [1]) is reported as 0.78 µg/mL (≈ 1.91 µM), the IC50 (Priestia megaterium [2]) is reported as 1.9 µg/mL (≈ 4.65 µM) and the IC50 (Priestia megaterium [3]) is reported as 3.9 µg/mL (≈ 9.55 µM). For the same molecule, the MIC (Staphylococcus aureus [4]) was 0.78 µg/mL (≈ 1.91 µM), the IC50 (L1210 [5]) was greater than 10 µg/mL and the IC50 (L1210 [6]) was 10 µg/mL (≈ 24.5 µM). The MIC (Staphylococcus aureus [7]) was no less than 100 µg/mL, the MIC (Enterococcus faecium [8]) was no less than 100 µg/mL and the MIC [9] was no less than 100 µg/mL. It also gave an MIC [10] greater than 100 µg/mL, an IC50 (Priestia megaterium [11]) of 2.5 µg/mL (≈ 6.12 µM) and an MIC (Priestia megaterium [12]) of 1 µg/mL (≈ 2.45 µM). The IC50 (Priestia megaterium [13]) was 1.9 µg/mL (≈ 4.65 µM) and the Activity [14] was “>= 100 ug ml-1”.
